Measured values published in patent publication US20110313006A1, “PHARMACEUTICAL COMPOSITION OF LEVAMLODIPINE OR PHARMACEUTICALLY ACCEPTABLE SALT THEREOF AND β RECEPTOR BLOCKING AGENT, AND USE THEREOF” (SHIHUIDA PHARMACEUTICALS GROUP (JILIN) LTD, priority 2010, published 2011).

System: SHR rats having spontaneous hypertension
Test: Antihypertension test in rat (systolic pressure at the tail artery, tail volume method)
Assay type: in vivo
Details: for Blood pressure (systolic pressure at the tail artery), 2 weeks after administration: end of week 2; for Blood pressure (systolic pressure at the tail artery), 3 weeks after administration: end of week 3; for Blood pressure (systolic pressure at the tail artery), 4 weeks after administration: end of week 4; for Blood pressure (systolic pressure at the tail artery), before administration / Anti-hypertensive effect compared with the model group: intragastric; for Blood pressure (systolic pressure at the tail artery), before administration: baseline before administration, mean ± spread; for Anti-hypertensive effect compared with the model group: versus model group (0.9% saline)
Excerpt: Experiment method: 120 SHR rats having spontaneous hypertension (female:male 1:2, weighted 200-240 g) were equally divided into 12 groups according to the level of hypertension (the specific grouping method is as shown in Table 1), and intragastrically administrated with the medicine. For the blood pressure of the rat, the systolic pressure at the tail artery of the rat when being wake and quiet was indirectly measured by an electronic blood pressure meter through tail volume method respectively before administration, and at the end of 1, 2, 3, and 4 weeks after administration.

[1] = SHR rats, intragastric daily, n = 10, end of week 1, dose per group in Table 1
[2] = SHR rats, intragastric daily, n = 10, dose per group in Table 1
[3] = SHR rats, n = 10, dose per group in Table 1

Molecule	Blood pressure (systolic pressure at the tail artery), 1 week after administration [1] [Kpa]	Blood pressure (systolic pressure at the tail artery), 2 weeks after administration [2] [KPa]	Blood pressure (systolic pressure at the tail artery), 3 weeks after administration [2] [KPa]	Blood pressure (systolic pressure at the tail artery), 4 weeks after administration [2] [KPa]	Blood pressure (systolic pressure at the tail artery), before administration [3] [KPa]	Anti-hypertensive effect compared with the model group (SHR rats)	Blood pressure (systolic pressure at the tail artery), 1 week after administration (po, 168 h) [Kpa]
OC(CNCC(O)C1CCc2cc(F)ccc2O1)C1CCc2cc(F)ccc2O1 (stereo not shown) [Single medicine group 2, Nebivolol]	27.28 ± 1.48	25.94 ± 1.68	25.57 ± 1.61	25.29 ± 1.49	27.42 ± 1.50	significant anti-hypertensive effect	–
CC(C)NCC(O)COc1ccc(COCCOC(C)C)cc1 (stereo not shown) [Single medicine group 3, Bisoprolol]	27.34 ± 1.41	26.14 ± 1.19	25.82 ± 1.20	25.58 ± 1.24	27.52 ± 1.46	significant anti-hypertensive effect	–
CC(C)NCC(O)COc1ccc(CCOCC2CC2)cc1 (stereo not shown) [Single medicine group 4, Betaxolol]	–	25.99 ± 1.39	25.62 ± 1.46	–	27.45 ± 1.07	significant anti-hypertensive effect	27.20 ± 1.10
CCN(CC)C(=O)Nc1ccc(OCC(O)CNC(C)(C)C)c(C(C)=O)c1 (stereo not shown) [Single medicine group 5, Celiprolol]	27.41 ± 1.30	–	25.83 ± 1.92	25.60 ± 2.05	27.56 ± 1.23	significant anti-hypertensive effect	–
CC(C)(C)NCC(O)COc1cccc2c1CC(O)C(O)C2 (stereo not shown) [Single medicine group 6, Nadolol]	27.30 ± 1.56	26.01 ± 1.42	25.62 ± 1.47	–	27.51 ± 1.53	significant anti-hypertensive effect	–
Levamlodipine benzenesulfonate [Single medicine group 1]	–	–	–	–	–	significant anti-hypertensive effect	–
